The results in this text go back to patent US9334269B2, “Carboxamides as inhibitors of voltage-gated sodium channels” (AMGEN INC., priority 2010, dated 2016).

The target in one experiment is T1, human Nav1.7 (hNav1.7) (Homo sapiens, UniProt Q15858).
T1 construct: expressed in transfected cells
T1 sequence (Q15858 whole entry): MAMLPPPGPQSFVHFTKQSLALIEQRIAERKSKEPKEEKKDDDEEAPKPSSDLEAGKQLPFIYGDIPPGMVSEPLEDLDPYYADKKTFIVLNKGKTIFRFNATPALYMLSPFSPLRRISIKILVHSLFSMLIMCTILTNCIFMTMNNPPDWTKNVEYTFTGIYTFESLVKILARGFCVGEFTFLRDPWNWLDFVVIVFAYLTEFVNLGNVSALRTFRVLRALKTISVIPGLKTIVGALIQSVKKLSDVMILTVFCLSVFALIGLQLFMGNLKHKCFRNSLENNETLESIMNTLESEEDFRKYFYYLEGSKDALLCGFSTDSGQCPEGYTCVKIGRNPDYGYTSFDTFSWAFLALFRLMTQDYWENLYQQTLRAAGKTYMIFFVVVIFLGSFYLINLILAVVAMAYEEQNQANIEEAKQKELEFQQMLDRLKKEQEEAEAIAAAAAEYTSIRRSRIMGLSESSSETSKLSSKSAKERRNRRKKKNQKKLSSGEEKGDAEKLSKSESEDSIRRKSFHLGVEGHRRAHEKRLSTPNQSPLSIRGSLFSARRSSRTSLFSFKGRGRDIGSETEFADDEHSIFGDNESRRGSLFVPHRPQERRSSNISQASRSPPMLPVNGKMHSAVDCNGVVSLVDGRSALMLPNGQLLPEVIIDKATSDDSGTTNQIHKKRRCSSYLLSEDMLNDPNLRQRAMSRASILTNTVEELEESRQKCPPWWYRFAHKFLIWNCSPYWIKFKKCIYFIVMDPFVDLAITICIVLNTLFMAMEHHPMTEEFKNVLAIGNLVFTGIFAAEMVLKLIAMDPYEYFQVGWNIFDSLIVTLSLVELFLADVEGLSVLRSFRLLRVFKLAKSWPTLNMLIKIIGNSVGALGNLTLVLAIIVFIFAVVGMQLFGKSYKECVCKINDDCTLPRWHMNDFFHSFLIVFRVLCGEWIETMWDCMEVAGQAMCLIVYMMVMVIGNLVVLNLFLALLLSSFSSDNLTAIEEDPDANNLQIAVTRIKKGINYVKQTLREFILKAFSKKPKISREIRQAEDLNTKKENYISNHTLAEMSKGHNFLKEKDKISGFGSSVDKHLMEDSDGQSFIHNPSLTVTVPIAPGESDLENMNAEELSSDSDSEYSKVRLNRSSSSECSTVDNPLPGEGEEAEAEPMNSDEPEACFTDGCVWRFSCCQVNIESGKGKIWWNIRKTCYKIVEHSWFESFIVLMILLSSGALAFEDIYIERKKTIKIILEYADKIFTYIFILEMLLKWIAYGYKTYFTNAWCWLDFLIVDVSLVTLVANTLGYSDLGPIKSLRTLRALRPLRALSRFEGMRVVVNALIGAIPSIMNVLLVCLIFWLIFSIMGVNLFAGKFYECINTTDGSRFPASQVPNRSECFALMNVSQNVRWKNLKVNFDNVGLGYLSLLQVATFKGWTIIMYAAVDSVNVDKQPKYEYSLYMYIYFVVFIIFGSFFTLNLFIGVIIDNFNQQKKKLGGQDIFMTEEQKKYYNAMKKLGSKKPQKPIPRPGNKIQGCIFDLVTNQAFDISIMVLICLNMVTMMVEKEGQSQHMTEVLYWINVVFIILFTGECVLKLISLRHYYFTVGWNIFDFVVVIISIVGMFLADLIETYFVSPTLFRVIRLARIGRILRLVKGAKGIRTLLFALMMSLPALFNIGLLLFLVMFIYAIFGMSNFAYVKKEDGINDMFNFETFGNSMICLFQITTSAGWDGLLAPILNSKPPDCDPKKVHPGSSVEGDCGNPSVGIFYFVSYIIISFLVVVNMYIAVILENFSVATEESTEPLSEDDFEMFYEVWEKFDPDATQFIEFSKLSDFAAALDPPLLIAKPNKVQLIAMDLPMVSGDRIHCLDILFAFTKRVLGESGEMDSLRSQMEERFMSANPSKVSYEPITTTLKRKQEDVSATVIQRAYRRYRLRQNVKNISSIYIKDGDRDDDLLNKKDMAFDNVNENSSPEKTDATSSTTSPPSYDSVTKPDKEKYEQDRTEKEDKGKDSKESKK
Nature of the experiment: hNav1.7 whole-cell patch-clamp electrophysiology (automated PatchXpress 7000A or manual) in stably expressing 293 cells. The format is cell-based. As to conditions: average IC50. The essentials:
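Stably transfected 293 cells lacking endogenous sodium channels; peak current evoked by depolarizing pulses during increasing compound concentrations, automated at ~20% fractional inactivation, or manually at −140 mV (resting) and ~20% inactivation. Block taken at steady state, corrected for rundown; IC50 by Hill fit.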
As a reminder, the IC50 is the concentration at which inhibition is half-maximal. Regarding `CNC(=O)c1cccc(Nc2ncnc(N3CCc4cc(C#N)ccc4C3)n2)c1` [Example 299], the IC50 is above 30 µM.

In the case of `CNC(=O)c1cccc(Nc2ncc(F)c(N3CC(Oc4ccc(F)cc4)C3)n2)c1` [Example 285], the IC50 is above 30 µM.

`CNC(=O)c1cccc(Nc2ncnc(N3CCC(OCC(C)C)CC3)n2)c1` [Example 296] yielded an IC50 above 30 µM.

Molecule `CNC(=O)c1cccc(Nc2ncnc(N3CCc4cccc(OC)c4C3)n2)c1` [Example 281] came in with an IC50 of 27.9 µM.

`CNC(=O)c1cccc(Nc2ncnc(N3CCCC(Oc4cccc(Cl)c4)C3)n2)c1` (stereo not drawn) [Example 278]: half-maximal inhibition (IC50) was put at 26 µM.

The molecule `CNC(=O)c1cccc(Nc2ncnc(N3CCC(CCCc4ccccc4)CC3)n2)c1` [Example 294] gave an IC50 above 30 µM.

Consider `CCN1C(=O)C2(CCN(c3ncnc(Nc4cccc(C(=O)NC)c4)n3)CC2)c2ccccc21` [Example 290], for which the IC50 was above 30 µM.

In the case of `CNC(=O)c1cccc(Nc2ncnc(N3CCc4oc(-c5ccccc5)cc4C3)n2)c1` [Example 265], the IC50 was found to be 19.2 µM.

On to `CNC(=O)c1cccc(Nc2ncnc(N3CCc4cccc(C(F)(F)F)c4C3)n2)c1` [Example 269], for which half-maximal inhibition (IC50) required 21 µM.

The experiment is the same for the next values; noted with them: average IC50, human Nav1.7.
For the molecule `CNC(=O)c1cccc(Nc2ncnc(N3CCC(Oc4cccc(Cl)c4)CC3)n2)c1` [Example 122], the IC50 is 2.1 µM.

Molecule `NC(=O)c1cccc(Nc2ncnc(N3CC(Oc4ccc(F)cc4)C3)n2)c1` [Example 237] came in with an IC50 of 10.7 µM.

With `COCCNC(=O)c1cccc(Nc2ncnc(N3CC(Oc4ccc(F)cc4)C3)n2)c1` [Example 38], the IC50 was found to be 0.5 µM. Against the preceding molecule, the IC50 is about 21-fold lower.

`CNC(=O)c1cccc(Nc2ncnc(N3CC(Oc4c(Cl)cccc4Cl)C3)n2)c1` [Example 63] yielded an IC50 of 0.82 µM.

Molecule `CNC(=O)c1cccc(Nc2ncnc(N3CC(COc4cccc(C(F)(F)F)c4)C3)n2)c1` [Example 188] came in with an IC50 of 5.44 µM. Compared with the last molecule, the IC50 is about 6.6-fold higher.

Molecule `CNC(=O)c1cccc(Nc2ncnc(N3CCC(Sc4ccc(C)cc4)CC3)n2)c1` [Example 250] returned a half-maximal inhibitory concentration (IC50) of 13.1 µM.

Consider `CNC(=O)c1cccc(Nc2ncnc(N3CCN(Cc4ccc(OC(F)(F)F)cc4)CC3)n2)c1` [Example 180], for which half-maximal inhibition (IC50) was put at 4.85 µM.

Regarding `CNC(=O)c1cccc(Nc2ncnc(N3CC(Oc4cccc(C(F)(F)F)c4F)C3)n2)c1` [Example 256], it took 16.7 µM to reach half-maximal inhibition (IC50).

Take `CNC(=O)c1cc(F)cc(Nc2ncnc(N3CC(Oc4ccc(F)c(Cl)c4)C3)n2)c1` [Example 121]: half-maximal inhibition (IC50) required 2.09 µM.

For the molecule `CNC(=O)c1cccc(Nc2ccnc(N3CC(Oc4ccc(F)cc4)C3)n2)c1` [Example 71], the IC50 is 0.9 µM.

In turn, `CNC(=O)c1cccc(Nc2ncnc(N3CCC(c4nc(-c5ccccc5)cs4)CC3)n2)c1` [Example 24] displayed an IC50 of 0.38 µM.

`CNC(=O)c1cc(F)cc(Nc2ncnc(N3CC(Oc4ccc(F)cc4)C3)n2)c1` [Example 98] showed a half-inhibitory concentration (IC50) of 1.41 µM.

The molecule `CNC(=O)c1cc(Nc2ncnc(N3CC(Oc4ccc(Cl)cc4)C3)n2)ccc1N(C)C` [Example 50] displayed an IC50 of 0.65 µM.

As for `NC(=O)c1cccc(Nc2ncnc(N3CCc4ccccc4C3)n2)c1` [Example 235], the midpoint of inhibition, the IC50, lay at 10.3 µM. This IC50 is about 16-fold higher than that of the molecule before.

On to `CNC(=O)c1cccc(Nc2nccc(N3CC(Oc4ccc(Cl)c(Cl)c4)C3)n2)c1` [Example 59], for which the IC50 is 0.78 µM.

With `CNC(=O)c1cccc(Nc2ncnc(N3CC=C(c4ccc(C)c(C)c4)CC3)n2)c1` [Example 133], the IC50 is 2.55 µM. Against the preceding molecule, the IC50 is about 3.3-fold higher.

`CNC(=O)c1cccc(Nc2ncnc(N3CCc4c(cnn4-c4ccc(Cl)cc4)C3)n2)c1` [Example 144] displayed an IC50 of 2.87 µM.

For the molecule `CNC(=O)c1cccc(Nc2ncnc(N3CC=C(c4nc(-c5ccccc5)cs4)CC3)n2)c1` [Example 52], the IC50 worked out at 0.66 µM.

The molecule `CCCc1noc(C2CCN(c3ncnc(Nc4cccc(C(=O)NC)c4)n3)CC2)n1` [Example 246] registered an IC50 of 12.7 µM.

The molecule `CNC(=O)c1cccc(Nc2ncnc(N3CC(Oc4ccc(C#N)c(Cl)c4)C3)n2)c1` [Example 128] registered an IC50 of 2.31 µM.

In turn, `CNC(=O)c1cccc(Nc2ncnc(N3CC(COc4ccccc4OC(F)(F)F)C3)n2)c1` [Example 229] came in with an IC50 of 9.44 µM. Against the preceding molecule, the IC50 is about 4.1-fold higher.

`CNC(=O)c1cccc(Nc2ncnc(N3CCC(Oc4ccc(C(F)(F)F)cc4)CC3)n2)c1` [Example 118] came in with an IC50 of 2.02 µM.

`CNC(=O)c1cccc(Nc2cc(N3CC(Oc4ccc(F)cc4)C3)ccn2)c1` [Example 179] had an IC50 of 4.84 µM. This IC50 is about 2.4-fold higher than that of the molecule before.

For the molecule `CNC(=O)c1cccc(Nc2ncnc(N3CCN(c4cccc(C)c4)CC3)n2)c1` [Example 114], 1.83 µM corresponded to half-maximal inhibition (IC50).

Molecule `CNC(=O)c1cccc(Nc2ncnc(N3CCc4cc(Cl)ccc4C3)n2)c1` [Example 130] registered an IC50 of 2.44 µM.

For `CNC(=O)c1cccc(Nc2ncnc(N3CC(Oc4ccc(F)c(Cl)c4)C3)n2)c1` [Example 15], the IC50 was determined as 0.28 µM. Compared with the last molecule, the IC50 is about 8.7-fold lower.

Molecule `CNC(=O)c1cccc(Nc2ncnc(N3CC(Oc4ccc5c(c4)CCC5)C3)n2)c1` [Example 22] registered an IC50 of 0.35 µM.

With `CNC(=O)c1cccc(Nc2ncnc(N3CC(Oc4ccc(F)cc4C)C3)n2)c1` [Example 16], the midpoint of inhibition, the IC50, lay at 0.29 µM.

In turn, `CNC(=O)c1cccc(Nc2ncnc(N3CCC(C#N)(c4ccc(Cl)cc4)CC3)n2)c1` [Example 147] yielded an IC50 of 2.92 µM.

Consider `CNC(=O)c1cccc(Nc2ncnc(NCc3nc(-c4ccccc4)no3)n2)c1` [Example 254], for which the IC50 was 15.7 µM.

The molecule `CC(C)(C)NC(=O)c1cccc(Nc2ncnc(N3CC(Oc4ccc(F)cc4)C3)n2)c1` [Example 213] showed an IC50 of 8.39 µM.

In the case of `CNC(=O)c1cccc(Nc2ncnc(N3CCC(c4nc(-c5ccccc5)no4)CC3)n2)c1` [Example 140], the midpoint of inhibition, the IC50, lay at 2.79 µM.

Take `CNC(=O)c1cccc(Nc2ncnc(N3CCC(c4ccc(Cl)cc4)CC3)n2)c1` [Example 249]: the IC50 stood at 13.1 µM.

The experiment is the same for the next values; noted with them: human Nav1.7 stably expressed in 293 cells; whole-cell patch clamp; average IC50 from Hill fit.
As for `CNC(=O)c1cccc(Nc2cccc(N3CC(Oc4ccc(Cl)cc4F)C3)c2)c1` [Example AG, 3-((3-(3-(4-chloro-2-fluorophenoxy)-1-azetidinyl)phenyl)amino)-N-methylbenzamide], the half-inhibitory concentration (IC50) was above 30 µM.

The molecule `CNC(=O)c1cccc(Nc2ccnc(NCCCOc3ccc(OC(F)(F)F)cc3)n2)c1` [Example AC, N-methyl-3-((2-((3-(4-(trifluoromethoxy)phenoxy)propyl)amino)-4-pyrimidinyl)amino)benzamide] showed an IC50 of 1.17 µM. In other words, the single-digit micromolar range.

As to `CNC(=O)c1cccc(Nc2nccc(N3CC(COc4ccc(Cl)cc4)C3)n2)c1` [Example O, 3-((4-(3-((4-chlorophenoxy)methyl)-1-azetidinyl)-2-pyrimidinyl)amino)-N-methylbenzamide], 2.55 µM corresponded to half-maximal inhibition (IC50).

In turn, `CNC(=O)c1cccc(Nc2nc(C)nc(N3CC(Oc4ccc(Cl)cc4F)C3)n2)c1` [Example U, 3-(4-(3-(4-chloro-2-fluorophenoxy)azetidin-1-yl)-6-methyl-1,3,5-triazin-2-ylamino)-N-methylbenzamide] registered an IC50 above 30 µM.

Molecule `CNC(=O)c1cccc(Oc2ncnc(N3CC(Oc4ccc(Cl)cc4F)C3)n2)c1` [Example AE, 3-((4-(3-(4-chloro-2-fluorophenoxy)-1-azetidinyl)-1,3,5-triazin-2-yl)oxy)-N-methylbenzamide] displayed an IC50 above 30 µM.

Molecule `CNC(=O)c1cccc(Nc2ccnc(N3CC(Oc4ccc(Cl)cc4F)C3)n2)c1` [Example AJ, 3-((2-(3-(4-chloro-2-fluorophenoxy)-1-azetidinyl)-4-pyrimidinyl)amino)-N-methylbenzamide] registered a 50% inhibitory concentration (IC50) of 2.26 µM. This lies in the single-digit micromolar range.
